According to patent publication US20230085307A1, “PYRIDAZINONE COMPOUND AND HERBICIDE” (NISSAN CHEMICAL CORPORATION, priority 2019, published 2023):

Columns and labels:
[1] = system: Chinese sprangletop; experiment: Test Example 3: herbicidal effect by foliage application, Wagner pot (Table 18, symbol D); format: in vivo, chinese sprangletop (Leptochloa chinensis); details: 320 g/ha
Procedure, shortened: (§1)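 Plants were sown in alluvial soil held under 0.1–0.5 cm standing water and grown 14 days in a greenhouse at 25–30 °C. An emulsifiable formulation, water-diluted to the set dose, was then sprayed onto the foliage, and effects were scored three weeks later using previously defined criteria.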

[2] = system: blackgrass; experiment: Test Example 4: herbicidal effect by soil treatment (Table 19, symbol J); format: in vivo, blackgrass (Alopecurus myosuroides); details: amount of applied herbicide 320 g/ha
Procedure, shortened: (§2)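 Soil-surface application: an emulsion agent diluted with water to the predetermined dose is sprayed uniformly over seeds lying under roughly 1.5 cm of sterilized diluvial soil. Boxes stay in a greenhouse at 25° C. to 30° C. Three weeks later, each species is graded on previously defined criteria.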

[3] = system: Italian ryegrass; experiment: Test Example 4: herbicidal effect by soil treatment (Table 19, symbol K); format: in vivo, Italian ryegrass (Lolium multiflorum); details: amount of applied herbicide 320 g/ha
Procedure, shortened: as §2

[4] = system: velvetleaf; experiment: Test Example 5: herbicidal effect by foliage application, plastic box (Table 20, symbol M); format: in vivo, velvetleaf (Abutilon theophrasti); details: foliage application, 320 g/ha, three weeks after application
Procedure, shortened: (§3)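 Sow seeds spot-wise in sterilized diluvial soil; cover with ~1.5 cm soil. Grow 14 days in greenhouse, 25° C. to 30° C. Spray foliage with emulsion diluted to predetermined amount. Rate effect after 3 weeks.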

[5] = system: windgrass; experiment: Test Example 4: herbicidal effect by soil treatment (Table 19, symbol L); format: in vivo, windgrass (Apera spica-venti); details: amount of applied herbicide 320 g/ha
Procedure, shortened: as §2

[6] = system: southern crabgrass; experiment: Test Example 5: herbicidal effect by foliage application, plastic box (Table 20, symbol F); format: in vivo, southern crabgrass (Digitaria ciliaris); details: foliage application, 320 g/ha, three weeks after application
Procedure, shortened: as §3

[7] = system: velvetleaf; experiment: Test Example 4: herbicidal effect by soil treatment (Table 19, symbol M); format: in vivo, velvetleaf (Abutilon theophrasti); details: amount of applied herbicide 320 g/ha
Procedure, shortened: as §2

[8] = system: lambsquarters; experiment: Test Example 5: herbicidal effect by foliage application, plastic box (Table 20, symbol O); format: in vivo, lambsquarters (Chenopodium album); details: foliage application, 320 g/ha, three weeks after application
Procedure, shortened: as §3

[9] = system: chickweed; experiment: Test Example 5: herbicidal effect by foliage application, plastic box (Table 20, symbol P); format: in vivo, common chickweed (Stellaria media); details: foliage application, 320 g/ha, three weeks after application
Procedure, shortened: as §3

[10] = system: barnyard grass; experiment: Test Example 3: herbicidal effect by foliage application, Wagner pot (Table 18, symbol H); format: in vivo, barnyard grass (Echinochloa crus-galli); details: 320 g/ha
Procedure, shortened: as §1

[11] = system: Italian ryegrass; experiment: Test Example 5: herbicidal effect by foliage application, plastic box (Table 20, symbol K); format: in vivo, Italian ryegrass (Lolium multiflorum); details: foliage application, 320 g/ha, three weeks after application
Procedure, shortened: as §3

[12] = system: rice flat sedge; experiment: Test Example 3: herbicidal effect by foliage application, Wagner pot (Table 18, symbol E); format: in vivo, rice flat sedge (Cyperus iria); details: 320 g/ha
Procedure, shortened: as §1

[13] = system: redroot pigweed; experiment: Test Example 5: herbicidal effect by foliage application, plastic box (Table 20, symbol N); format: in vivo, redroot pigweed (Amaranthus retroflexus); details: foliage application, 320 g/ha, three weeks after application
Procedure, shortened: as §3

[14] = system: wild oat; experiment: Test Example 4: herbicidal effect by soil treatment (Table 19, symbol I); format: in vivo, wild oat (Avena fatua); details: amount of applied herbicide 320 g/ha
Procedure, shortened: as §2

[15] = system: false cleavers; experiment: Test Example 5: herbicidal effect by foliage application, plastic box (Table 20, symbol Q); format: in vivo, false cleavers (Galium spurium); details: foliage application, 320 g/ha, three weeks after application
Procedure, shortened: as §3

[16] = system: blackgrass; experiment: Test Example 5: herbicidal effect by foliage application, plastic box (Table 20, symbol J); format: in vivo, blackgrass (Alopecurus myosuroides); details: foliage application, 320 g/ha, three weeks after application
Procedure, shortened: as §3

[17] = system: chickweed; experiment: Test Example 4: herbicidal effect by soil treatment (Table 19, symbol P); format: in vivo, common chickweed (Stellaria media); details: amount of applied herbicide 320 g/ha
Procedure, shortened: as §2

[18] = system: redroot pigweed; experiment: Test Example 4: herbicidal effect by soil treatment (Table 19, symbol N); format: in vivo, redroot pigweed (Amaranthus retroflexus); details: amount of applied herbicide 320 g/ha
Procedure, shortened: as §2

[19] = system: barnyard grass; experiment: Test Example 4: herbicidal effect by soil treatment (Table 19, symbol H); format: in vivo, barnyard grass (Echinochloa crus-galli); details: amount of applied herbicide 320 g/ha
Procedure, shortened: as §2

[20] = system: barnyard grass; experiment: Test Example 5: herbicidal effect by foliage application, plastic box (Table 20, symbol H); format: in vivo, barnyard grass (Echinochloa crus-galli); details: foliage application, 320 g/ha, three weeks after application
Procedure, shortened: as §3

[21] = system: windgrass; experiment: Test Example 5: herbicidal effect by foliage application, plastic box (Table 20, symbol L); format: in vivo, windgrass (Apera spica-venti); details: foliage application, 320 g/ha, three weeks after application
Procedure, shortened: as §3

[22] = system: persian speedwell; experiment: Test Example 5: herbicidal effect by foliage application, plastic box (Table 20, symbol R); format: in vivo, Persian speedwell (Veronica persica); details: foliage application, 320 g/ha, three weeks after application
Procedure, shortened: as §3

[23] = system: wild oat; experiment: Test Example 5: herbicidal effect by foliage application, plastic box (Table 20, symbol I); format: in vivo, wild oat (Avena fatua); details: foliage application, 320 g/ha, three weeks after application
Procedure, shortened: as §3

[24] = system: lambsquarters; experiment: Test Example 4: herbicidal effect by soil treatment (Table 19, symbol O); format: in vivo, lambsquarters (Chenopodium album); details: amount of applied herbicide 320 g/ha
Procedure, shortened: as §2

[25] = system: false cleavers; experiment: Test Example 4: herbicidal effect by soil treatment (Table 19, symbol Q); format: in vivo, false cleavers (Galium spurium); details: amount of applied herbicide 320 g/ha
Procedure, shortened: as §2

[26] = system: green foxtail; experiment: Test Example 5: herbicidal effect by foliage application, plastic box (Table 20, symbol G); format: in vivo, green foxtail (Setaria viridis); details: foliage application, 320 g/ha, three weeks after application
Procedure, shortened: as §3

[27] = system: green foxtail; experiment: Test Example 4: herbicidal effect by soil treatment (Table 19, symbol G); format: in vivo, green foxtail (Setaria viridis); details: amount of applied herbicide 320 g/ha
Procedure, shortened: as §2

[28] = system: southern crabgrass; experiment: Test Example 4: herbicidal effect by soil treatment (Table 19, symbol F); format: in vivo, southern crabgrass (Digitaria ciliaris); details: amount of applied herbicide 320 g/ha
Procedure, shortened: as §2

[29] = system: persian speedwell; experiment: Test Example 4: herbicidal effect by soil treatment (Table 19, symbol R); format: in vivo, Persian speedwell (Veronica persica); details: amount of applied herbicide 320 g/ha
Procedure, shortened: as §2

## COc1ccc(-c2sc3cc(OC)ccc3c2-c2c(O)c(C)nn(C)c2=O)cc1 [3-068]
[1]
  herbicidal effect on Chinese sprangletop (D): 2 (Herbicidal rate of 20% or more and less than 40%)
[2]
  J: blackgrass, herbicidal effect grade: 0 (Herbicidal rate of 5% or less (almost no effect))
[3]
  K: Italian ryegrass, herbicidal effect grade: 2 (Herbicidal rate of 20% or more and less than 40%)
[4]
  M: velvetleaf, herbicidal effect grade: 4 (Herbicidal rate of 70% or more and less than 90%)
[5]
  L: windgrass, herbicidal effect grade: 0 (Herbicidal rate of 5% or less (almost no effect))
[6]
  F: southern crabgrass, herbicidal effect grade: 0 (Herbicidal rate of 5% or less (almost no effect))
[7]
  M: velvetleaf, herbicidal effect grade: 0 (Herbicidal rate of 5% or less (almost no effect))
[8]
  O: lambsquarters, herbicidal effect grade: 5 (Herbicidal rate of 90% or more (almost completely withered))
[9]
  P: chickweed, herbicidal effect grade: 5 (Herbicidal rate of 90% or more (almost completely withered))
[10]
  herbicidal effect on barnyard grass (H): 3 (Herbicidal rate of 40% or more and less than 70%)
[11]
  K: Italian ryegrass, herbicidal effect grade: 3 (Herbicidal rate of 40% or more and less than 70%)
[12]
  herbicidal effect on rice flat sedge (E): 3 (Herbicidal rate of 40% or more and less than 70%)
[13]
  N: redroot pigweed, herbicidal effect grade: 3 (Herbicidal rate of 40% or more and less than 70%)
[14]
  I: wild oat, herbicidal effect grade: 0 (Herbicidal rate of 5% or less (almost no effect))
[15]
  Q: false cleavers, herbicidal effect grade: 5 (Herbicidal rate of 90% or more (almost completely withered))
[16]
  J: blackgrass, herbicidal effect grade: 1 (Herbicidal rate of 5% or more and less than 20%)
[17]
  P: chickweed, herbicidal effect grade: 2 (Herbicidal rate of 20% or more and less than 40%)
[18]
  N: redroot pigweed, herbicidal effect grade: 4 (Herbicidal rate of 70% or more and less than 90%)
[19]
  H: barnyard grass, herbicidal effect grade: 0 (Herbicidal rate of 5% or less (almost no effect))
[20]
  H: barnyard grass, herbicidal effect grade: 0 (Herbicidal rate of 5% or less (almost no effect))
[21]
  L: windgrass, herbicidal effect grade: 0 (Herbicidal rate of 5% or less (almost no effect))
[22]
  R: persian speedwell, herbicidal effect grade: 5 (Herbicidal rate of 90% or more (almost completely withered))
[23]
  I: wild oat, herbicidal effect grade: 0 (Herbicidal rate of 5% or less (almost no effect))
[24]
  O: lambsquarters, herbicidal effect grade: 4 (Herbicidal rate of 70% or more and less than 90%)
[25]
  Q: false cleavers, herbicidal effect grade: 4 (Herbicidal rate of 70% or more and less than 90%)
[26]
  G: green foxtail, herbicidal effect grade: 0 (Herbicidal rate of 5% or less (almost no effect))
[27]
  G: green foxtail, herbicidal effect grade: 0 (Herbicidal rate of 5% or less (almost no effect))
[28]
  F: southern crabgrass, herbicidal effect grade: 0 (Herbicidal rate of 5% or less (almost no effect))
[29]
  R: persian speedwell, herbicidal effect grade: 5 (Herbicidal rate of 90% or more (almost completely withered))
